Experimental data reported in patent US7713923B2, “Self-assembling peptides incorporating modifications and methods of use thereof” (Massachusetts Institute of Technology, priority 2003, dated 2010).

How the values were obtained:
[1] = tested on: PC12 cells, endothelial cells, heparin; conditions: cited from earlier work
[2] = Circular dichroism (secondary structure); assay type: physicochemical; conditions: 25 μM peptide in water, room temperature, 195-250 nm
Procedure: Circular dichroism (DC). CD spectra were gathered on an Aviv model 202 spectropolarimeter. Samples were prepared by diluting stock peptide solutions in water (0.5%) to a working concentration of 25 μM. Samples were analysed at room temperature in a quartz cuvette with a path length of 0.3 cm and in the wavelength range 195-250 nm.
Circular dichroism. CD spectra were obtained for each peptide sequence to assess its secondary structure. The secondary structure identifies ordered structures within a polypeptide such as α-helices and β-sheets. […] (Havel, 1996).

[3] = tested on: human aortic endothelial cells (HAEC); assay: HAEC monolayer formation on peptide scaffolds; assay type: cell-based; parameters: key to HAEC monolayer formation, peptide content 100% / HAEC monolayer formation, Blending (9:1): +: Score for optimal monolayer formation and cell survival; −: Score for poor or none monolayer formation and cell survival; conditions: for HAEC monolayer formation, Blending (9:1): RAD16-I: peptide sequence at a ratio 9:1 (v/v); for HAEC monolayer formation, peptide content 100%: scaffold of 100% peptide, 0.5% (w/v); for HAEC monolayer formation, peptide blends: 9:1 RAD16-I:modified peptide, seeded subconfluent (~30%)
Procedure: Endothelial cell culture system. Peptide scaffolds (0.5% w/v) were prepared at 100% peptide sequence for RAD16-I or blended with RAD16-I at a radio of 9:1 (RAD16-I: peptide sequence, on a volume/volume basis) for the three other cases (YIG, RYV, and TAG). Each solution was filtered (0.2 μm, Acrodysc filters, 4192, PALL, MI), loaded (30 μl) on top of a cell culture chamber insert (10 mm diameter, 136935, Nalge Nunc International, IL), and allowed to form a layer (average thickness=600 μm). Phosphate Buffer Saline (PBS) (600 μl) was added at the bottom of the well to induce hydrogel formation, and the system was incubated at room temperature for 30 min. PBS was replaced with culture medium, which was then replaced with fresh medium. The scaffolds were incubated for 1 hour with endothelial cell growth media (EGM-2, Cambrex, MD) in a cell culture incubator at 37° C. with 5% CO2.
(§1) Meanwhile, human aortic endothelial cells (HAEC) (CC-2535, Cambrex, MD) that had been maintained under standard culture conditions (passage 5-6) were harvested at 80% confluence using trypsin and loaded on top of the preformed peptide scaffolds at a cell density of 8×10^4 cells/cm^2 and cultured in the cell culture incubator at 37° C. with 5% CO2. Cell attachment assays were performed one hour after the initial cell loading. To perform the assays, the covering media was removed, and unattached cells were counted on a hematocytometer. Cell counting was performed by mechanically disrupting the scaffold containing cells by pipetting up and down and then counting cells on a hematocytometer after performing Trypan blue (T 9906, Sigma, MO) exclusion assay staining to assess cell viability. In some experiments, for comparison, EC were cultured on inserts coated with Matrigel or collagen (1.5 mg/ml, i.e. 0.15%) according to standard protocols.
In a first experiment, we tested the ability of HAEC to attach and form a monolayer when seeded on various peptide scaffolds generated by self-assembly of the peptides following addition of PBS to a 0.5%(w/v) solution of the peptide in water. […] HAEC cultured in the presence of scaffolds generated from peptides incorporating the other biologically active peptide motifs either died or formed isolated clusters (FIGS. 9A-9G).
We therefore decided to blend the peptides incorporating biologically active motifs with the prototypic RAD16-I sequence in order to reduce the overall concentration of the biologically active motif presented to cells. We selected a volume/volume ratio of 9:1 (RAD16-I:modified peptide sequence comprising biologically active peptide motif, where peptides were dissolved at equal concentrations on a w/w basis) and generated peptide scaffolds from solutions in which the unmodified and modified peptides were present in this ratio.

[4] = tested on: human aortic endothelial cells (HAEC); assay: HAEC attachment assay on peptide scaffolds; assay type: cell-based; conditions: after one hour; modified peptides as 9:1 blends with RAD16-I
Procedure: as §1

[5] = tested on: human aortic endothelial cells (HAEC); assay: NO release determination (Griess method); assay type: cell-based; conditions: nitrite in culture supernatant; RAD16-I 100%, others 9:1 blend
Procedure: NO release determination. Nitric oxide (NO) release was estimated by measuring nitrites (NOx) by the Griess method. Briefly, the media was replaced after the third day of culture by new media without fetal bovine serum (FBS) or ascorbic acid. The next day, the media was used to analyze NO release using a commercially available kit (482702, Calbiochem, CA) following the manufacturer instructions. Each condition was tested in triplicate.

[6] = tested on: chondrocytes; conditions: encapsulated cells; cited from earlier work

| Compound | Secondary structure (CD) [2] | Biological activity [1] | HAEC monolayer formation, Blending (9:1) [3] | HAEC monolayer formation, peptide content 100% [3] | HAEC monolayer formation, peptide blends [3] | HAEC attachment to the surface [4] [%] | nitric oxide (NO) release by HAEC [5] | chondrocyte phenotype in hydrogel [6] | HAEC monolayer formation, scaffold of 100% peptide ([3]; 0.5% (w/v) peptide, no blending) |
| --- | --- | --- | --- | --- | --- | --- | --- | --- | --- |
| CSRARKQAASIKVAVSADR |  | vessel formation |  |  |  |  |  |  |  |
| AcN-KLDLKLDLKLDL-CONH2 (Ac-KLDLKLDLKLDL-NH2) [KLD12] |  |  |  |  |  |  |  | retained their morphology and developed a cartilage-like, mechanically functional ECM rich in proteoglycans and type-II collagen |  |
| PDGSR |  | Cell adhesion |  |  |  |  |  |  |  |
| KAFDITYVRLKF |  | neurite outgrowth |  |  |  |  |  |  |  |

More lines, main results first:

| Secondary structure (CD) [2] | Compound | Biological activity [1] | HAEC monolayer formation, Blending (9:1) [3] | HAEC monolayer formation, peptide content 100% [3] | HAEC monolayer formation, peptide blends [3] | HAEC attachment to the surface [4] [%] | nitric oxide (NO) release by HAEC [5] | chondrocyte phenotype in hydrogel [6] | HAEC monolayer formation, scaffold of 100% peptide ([3]; 0.5% (w/v) peptide, no blending) |
| --- | --- | --- | --- | --- | --- | --- | --- | --- | --- |
| β-sheet | CC(=O)N1CCC[C@H]1C(=O)N[C@@H](CC(=O)O)C(=O)N[C@@H](CO)C(=O)NCC(=O)N[C@@H](CCCNC(=N)N)C(=O)NCC(=O)NCC(=O)N[C@@H](CCCNC(=N)N)C(=O)N[C@@H](C)C(=O)N[C@@H](CC(=O)O)C(=O)N[C@@H](C)C(=O)N[C@@H](CCCNC(=N)N)C(=O)N[C@@H](C)C(=O)N[C@@H](CC(=O)O)C(=O)N[C@@H](C)C(=O)N[C@@H](CCCNC(=N)N)C(=O)N[C@@H](C)C(=O)N[C@@H](CC(=O)O)C(=O)N[C@@H](C)C(=O)N[C@@H](CCCNC(=N)N)C(=O)N[C@@H](C)C(=O)N[C@@H](CC(=O)O)C(=O)N[C@@H](C)C(N)=O [PDS, AcN-PDSGR-GG-(RADA)4-CONH2] |  | − | − |  |  |  |  |  |
| β-sheet | Ac-RYVVLPRGGRADARADARADARADA-NH2 [RYV, AcN-RYVVLPR-GG-(RADA)4-CONH2] |  | + | − | readily supported monolayer formation | ~100 | inhibits NO release |  |  |
| random coil | Ac-KAFDITYVRLKFGGRADARADARADARADA-NH2 [KAF, AcN-KAFDITYVRLKF-GG-(RADA)4-CONH2] |  | − | − |  |  |  |  |  |
| β-sheet | Ac-TAGSCLRKFSTMGGRADARADARADARADA-NH2 [TAG, AcN-TAGSCLRKFSTM-GG-(RADA)4-CONH2] |  | + | − | readily supported monolayer formation | ~100 | promote NO release |  |  |
| β-sheet | CC[C@H](C)[C@H](NC(=O)[C@H](Cc1ccc(O)cc1)NC(C)=O)C(=O)NCC(=O)N[C@@H](CO)C(=O)N[C@@H](CCCNC(=N)N)C(=O)NCC(=O)NCC(=O)N[C@@H](CCCNC(=N)N)C(=O)N[C@@H](C)C(=O)N[C@@H](CC(=O)O)C(=O)N[C@@H](C)C(=O)N[C@@H](CCCNC(=N)N)C(=O)N[C@@H](C)C(=O)N[C@@H](CC(=O)O)C(=O)N[C@@H](C)C(=O)N[C@@H](CCCNC(=N)N)C(=O)N[C@@H](C)C(=O)N[C@@H](CC(=O)O)C(=O)N[C@@H](C)C(=O)N[C@@H](CCCNC(=N)N)C(=O)N[C@@H](C)C(=O)N[C@@H](CC(=O)O)C(=O)N[C@@H](C)C(N)=O [YIG, AcN-YIGSR-GG-(RADA)4-CONH2] |  | + | + | readily supported monolayer formation | ~100 | promote NO release |  | able to support the formation of a monolayer |
